Source: patent EP0549365A1, “Thiazolidine compounds, their preparation and their therapeutic uses” (Sankyo Company Limited, priority 1991, dated 1993)

System: diabetic male mice of the KK strain
Assay: Hypoglycemic activity (blood glucose lowering in diabetic KK mice)
Format: in vivo
Conditions: Mus musculus, 50 mg/kg oral, blood from tail vein after 18 hours free feeding, relative to solvent group, read-out: BGL lowering rate (%)
Procedure: The test animals used were diabetic male mice of the KK strain, each having a body weight more than 40 g. Each animal was orally administered 50 mg/kg of a test compound and then allowed to feed freely for 18 hours. At the end of this time, blood was collected from the tail veins without anesthesia. The blood glucose level (BGL) was determined by means of a glucose analyzer (GL-101, manufactured by Mitsubishi Kasei Co.).
The blood glucose lowering rate was calculated by the following equation: Blood glucose lowering rate (%) = [(BGLs - BGLt )/BGLs ] x 100 [formula] where: BGLs is the BGL in the group administered a solvent; and BGLt is the BGL in the group administered a test compound.

Compound | inhibition in vivo at 50 mg/kg [%]
CC1=C(C)C(=O)C(CCC(C)(O)COc2ccc(CC3SC(=O)NC3=O)cc2)=C(C)C1=O (centres unmarked) [Control 1, 5-{4-[2-Methyl-2-hydroxy-4-(3,5,6-trimethyl-1,4-benzoquinon-2-yl)butoxy]benzyl}thiazolidine-2,4-dione, reference compound] | -0.5
Cc1c(C)c(O)c(CCC(C)(O)COc2ccc(CC3SC(=O)NC3=O)cc2)c(C)c1O (centres unmarked) [Control 2, 5-{4-[4-(2,5-Dihydroxy-3,4,6-trimethylphenyl)-2-hydroxy-2-methylbutoxy]benzyl}thiazolidine-2,4-dione, reference compound] | 10.4
CC(=O)Oc1c(C)c(C)c(OC(C)=O)c(Oc2ccc(CC3SC(=O)NC3=O)cc2)c1C (centres unmarked) [Example 7, 5-[4-(2,5-Diacetoxy-3,4,6-trimethylphenoxy)benzyl]thiazolidine-2,4-dione] | 24
COc1c(C)c(C)c(OC)c(COc2ccc(CC3SC(=O)NC3=O)cc2)c1C (centres unmarked) [Example 9] | 28.8
COc1c(C)c(C)c(OC)c(CCCOc2ccc(CC3SC(=O)NC3=O)cc2)c1C (centres unmarked) [Example 10, 5-{4-[3-(2,4,5-trimethyl-3,6-dimethoxyphenyl)propoxy]benzyl}thiazolidine-2,4-dione] | 46
COc1c(C)c(C)c(OC)c(CCCCOc2ccc(CC3SC(=O)NC3=O)cc2)c1C (centres unmarked) [Example 12] | 24
COc1c(C)c(CCOc2ccc(CC3SC(=O)NC3=O)cc2)c(OC)c(OC)c1OC (centres unmarked) [Example 16] | 20.2
COc1c(C)c(CCCOc2ccc(CC3SC(=O)NC3=O)cc2)c(OC)c(OC)c1OC (centres unmarked) [Example 18] | 22
COc1c(C)c(CCCCOc2ccc(CC3SC(=O)NC3=O)cc2)c(OC)c(OC)c1OC (centres unmarked) [Example 19] | 26.6
CC(=O)Oc1c(C)c(C)c(OC(C)=O)c(CCOc2ccc(CC3SC(=O)NC3=O)cc2)c1C (centres unmarked) [Example 21] | 33.4
CC(=O)Oc1c(C)c(C)c(OC(C)=O)c(CCCOc2ccc(CC3SC(=O)NC3=O)cc2)c1C (centres unmarked) [Example 23] | 24.4
COc1cc(COc2ccc(CC3SC(=O)NC3=O)cc2)c(OC)c2ccccc12 (centres unmarked) [Example 31] | 32.9
COc1c(C)c(COc2ccc(CC3SC(=O)NC3=O)cc2)c(OC)c2ccccc12 (centres unmarked) [Example 33] | 28.4
COc1cc(CCOc2ccc(CC3SC(=O)NC3=O)cc2)c(OC)c2ccccc12 (centres unmarked) [Example 34] | 40
